How the values were obtained:
[1] = test system: active caspase-3 in SKL cells; experiment: Active caspase-3 by FACS in SKL cells; format: cell-based, mouse
Source text: All antibodies were purchased from BD Biosciences unless otherwise noted. For detection and sorting of murine KL and SKL cells, streptavidin conjugated with PE-Cy7 (to stain for biotinylated MACS lineage antibodies (Miltenyi Biotech, Auburn, Calif.)), c-kit-APC, Sca-1-PE or APC-Cy7, CD45. 1-PE and CD45.2-FITC were used. UCB CD34^+ cells were detected using anti-human-CD34-APC. For multilineage analysis, APC-Cy7-Mac-1, PE-Cy7-B-220 and APC-CD3 were used. EP receptors were detected with anti EP1, EP2, EP3 and EP4 rabbit IgG (Cayman Chemicals) and secondary staining with FITC-goat-anti-rabbit IgG (Southern Biotech, Birmingham, Ala.). CXCR4 expression was analyzed using streptavidin-PECy7, c-kit-APC, Sca-1-APC-Cy7, and CXCR4-PE. Apoptosis was measured with FITC-Annexin-V. For Survivin and active caspase-3 detection, cells were permeabilized and fixed using the CytoFix/CytoPerm kit (BD) and stained with anti-active-caspase-3-FITC Flow Kit (BD) or Survivin-PE (R&D Systems).
Expression of EP receptors, CXCR4 and Survivin Replicate Lin^neg cell samples from CD45.2 mice were stained for SKL and each of the EP receptors and surface receptor expression on KL and SKL cells determined by FACS. […] Replicate cells were stained for CD34 and each of the EP receptors and surface expression determined by FACS. […]

[2] = test system: CXCR4 on murine KL and SKL cells; experiment: CXCR4 surface expression by FACS after pulse exposure, murine cells; format: cell-based, mouse; settings: for CXCR4 expression on KL and SKL cells: pulse-exposure of Lin neg cells, 24 hours
Source text: (§1) Expression of EP receptors, CXCR4 and Survivin Replicate Lin^neg cell samples from CD45.2 mice were stained for SKL and each of the EP receptors and surface receptor expression on KL and SKL cells determined by FACS. For human EP receptors, UCB was obtained from Wishard Hospital, Indianapolis, Ind. with Institutional Review Board approval. Mononuclear cells were isolated on Ficoll-Paque™ Plus (Amersham Biosciences) and CD34^+ cells positively selected with MACS microbeads (Miltenyi Biotech) (Fukuda and Pelus, 2001). Replicate cells were stained for CD34 and each of the EP receptors and surface expression determined by FACS. To evaluate CXCR4, Survivin and active caspase-3, Lin^neg cells or CD34^+ UCB were treated on ice with either 1 microMolar dmPGE2 or vehicle control for 2 hours, washed, and then cultured in RPMI-1640+10% FBS at 37° C. for 24 hours. Cells were stained for SKL (murine cells) and CXCR4, Survivin, and/or active caspase-3, as described above, and analyzed by FACS.
(§2) To evaluate CXCR4, Lineage^neg mouse bone marrow cells or CD34^+ UCB were treated on ice with either 1 microMolar dmPGE2 or vehicle control for 2 hours, washed, and then cultured in RPMI-1640/10% HI-FBS at 37° C. for 24 hours, stained for SKL (murine cells) or CD34 (human) and CXCR4 and analyzed by FACS. Referring now to FIG. 4A, CXCR4 expression on murine KL and SKL cells and human CD34^+ UCB cells 24 hours after treatment with dmPGE2. Data are expressed as Mean±SEM % change in mean fluorescence intensity (MFI) of CXCR4 due to treatment with dmPGE2 or vehicle (n=3).

[3] = test system: CXCR4 on human CD34+ UCB cells; experiment: CXCR4 surface expression by FACS after pulse exposure, human cells; format: cell-based
Source text: as §1, with “To evaluate CXCR4, Survivin and active caspase-3, Lin^neg cells or CD34^+ UCB were treated on ice with either 1 microMolar dmPGE2 or vehicle control for 2 hours, washed, and then cultured in RPMI-1640+10% FBS at 37° C. for 24 hours.” left out
as §2, with “Referring now to FIG. 4A, CXCR4 expression on murine KL and SKL cells and human CD34^+ UCB cells 24 hours after treatment with dmPGE2.” left out

[4] = test system: SKL cells; experiment: Apoptosis assay (Annexin-V+ SKL cells); format: cell-based, mouse; settings: for apoptosis of SKL cells in vitro: 0.1 nanoMolar-1 microMolar
Description: Lin^neg cells were treated on ice with 0.1 nanoMolar to 1 microMolar dmPGE2 or vehicle control, washed and incubated in RPMI-1640+2% FBS, without growth factors at 37° C. to induce apoptosis. After 24 hours, cells were stained for SKL and Annexin-V and the proportion of Annexin-V^+ SKL cells was determined by FACS.
Apoptosis is an important regulatory process in normal and malignant hematopoiesis and PGE2 has been implicated in anti-apoptotic signalling. Moreover, activation of cAMP, a downstream signaling molecule of EP receptors, inhibits apoptosis in CD34^+ cells. […] To evaluate an effect of dmPGE2 on HSPC survival, Lin^neg cells were pulsed with 0.1 nanoMolar-1 microMolar dmPGE2 or vehicle and cultured in serum-reduced culture medium without growth factors.

Structure (SMILES)	decrease in active caspase-3 ([1]; 24-72 hours post exposure)	increase in CXCR4 expression on SKL ([2]; after PGE2 exposure) [%]	CXCR4 expression on KL and SKL cells [2]	increase in CXCR4 expression on CD34+ UCB ([3]; after PGE2 exposure) [%]	apoptosis of SKL cells in vitro [4]	active caspase-3 in SKL cells ([1]; 24, 48 and 72 hours post-exposure, vs control)	CXCR4 expression on CD34+ UCB cells ([3]; pulse exposure, 24 hours)	inhibition of apoptosis in SKL cells ([4]; at 1 microMolar, serum-reduced medium without growth factors, 24 hours) [%]
CCCCC[C@H](O)/C=C/[C@H]1[C@H](O)CC(=O)[C@@H]1C/C=C\CCCC(=O)O [PGE2, Prostaglandin E2]	23-59%	26.8	increased	17.3	dose-dependently decreased apoptosis	–	–	–
CCCCC(C)(C)[C@H](O)/C=C/[C@H]1[C@H](O)CC(=O)[C@@H]1C/C=C\CCCC(=O)O [dmPGE2, 16,16-dimethyl prostaglandin E2]	–	–	increased CXCR4 expression	–	reduced apoptosis in SKL cells in a dose dependent fashion	decreased active caspase-3	increased CXCR4 expression	~65

Reference: US9107909B2, “Materials and methods to enhance hematopoietic stem cells engraftment procedures” (priority 2008, dated 2015)
